Values after ≈ are worked out from the molar mass of the structure shown. Numbered stars: 1 amine (or outer) side, 2 acyl side, 3 side chain; on linkers, the order of the positions; unused ones are H or OH. Peptide text beside a SMILES is read from it. * marks the point of attachment. C20 diacid = O=C(O)CCCCCCCCCCCCCCCCCCC(=O)*; C18 diacid = O=C(O)CCCCCCCCCCCCCCCCC(=O)*; γGlu = O=C(O)[C@H](CCC(=O)[*:2])N[*:1]; Palmitoyl = CCCCCCCCCCCCCCCC(=O)*; AEEA = NCCOCCOCC(=O)O
Test: Assay (IV) determination of solubility
Assay type: physicochemical
Description: Assay (IV)—Determination of Solubility
The mimylin peptide was dissolved in water at ˜500 nmol/ml and mixed 1:1 with a series of buffers (100 mM glycylglycine pH 3.0, 100 mM glycylglycine pH 4.0, 100 mM glycylglycine pH 5.0, 100 mM bistrispropane pH 6.0, 100 mM bistrispropane pH 6.5, 100 mM bistrispropane pH 7.0, 100 mM bistrispropane pH 7.5, 100 mM bistrispropane pH 8.0).

SMILES	Solubility (pH 3.0)	Solubility (pH 4.0)	Solubility (pH 5.0)	Solubility (pH 6.0)	Solubility (pH 6.5)	Solubility (pH 7.0)	Solubility (pH 7.5)	Solubility (pH 8.0)	solubility at 18 h (pH 4.0) [µM]	solubility at 18 h (pH 5.0) [µM]
CC(C)C[C@H](NC(=O)[C@H](C)NC(=O)[C@H](C)NC(=O)[C@@H](NC(=O)[C@H](CO)NC(=O)[C@H](CC(C)C)NC(=O)[C@H](CCC(=O)O)NC(=O)[C@H](CO)NC(=O)[C@H](C)NC(=O)COCCOCCNC(=O)COCCOCCNC(=O)COCCOCCNC(=O)CC[C@H](NC(=O)CCCCCCCCCCCCCCCCCCC(=O)O)C(=O)O)[C@@H](C)O)C(=O)NCC(=O)N[C@@H](CCCNC(=N)N)C(=O)N[C@@H](CC(C)C)C(=O)N[C@@H](CO)C(=O)N[C@@H](C)C(=O)N[C@@H](CCC(=O)O)C(=O)N[C@@H](CC(C)C)C(=O)N[C@@H](Cc1cnc[nH]1)C(=O)N[C@@H](CCC(=O)O)C(=O)N[C@@H](CC(C)C)C(=O)N[C@@H](C)C(=O)N[C@H](C(=O)N[C@@H](CC(C)C)C(=O)N1CCC[C@H]1C(=O)N[C@@H](CCCNC(=N)N)C(=O)N[C@H](C(=O)N[C@@H](CCC(=O)O)C(=O)N[C@H](C(=O)NCC(=O)N[C@@H](CO)C(=O)NCC(=O)N[C@@H](CO)C(=O)N1CCC[C@H]1C(N)=O)[C@@H](C)O)[C@@H](C)O)[C@@H](C)O [compound 43, [N-terminal(C20 diacid-gGlu-3xOEG), des1, 30S, 31G]mimylin] ({C20 diacid-γGlu-AEEA-AEEA-AEEA}-ASELSTAALGRLSAELHELATLPRTETGSGSP-NH2)	≧200 μM	≧200 μM	≧200 μM	≧200 μM	≧200 μM	≧200 μM	≧200 μM	≧200 μM		
CC(C)C[C@H](NC(=O)[C@H](C)NC(=O)[C@H](C)NC(=O)[C@@H](NC(=O)[C@H](CO)NC(=O)[C@H](CC(C)C)NC(=O)[C@H](CCC(=O)O)NC(=O)[C@H](CO)NC(=O)[C@H](C)NC(=O)CC[C@H](NC(=O)CCCCCCCCCCCCCCCCCCC(=O)O)C(=O)O)[C@@H](C)O)C(=O)NCC(=O)N[C@@H](CCCNC(=N)N)C(=O)N[C@@H](CC(C)C)C(=O)N[C@@H](CO)C(=O)N[C@@H](C)C(=O)N[C@@H](CCC(=O)O)C(=O)N[C@@H](CC(C)C)C(=O)N[C@@H](Cc1cnc[nH]1)C(=O)N[C@@H](CCC(=O)O)C(=O)N[C@@H](CC(C)C)C(=O)N[C@@H](C)C(=O)N[C@H](C(=O)N[C@@H](CC(C)C)C(=O)N1CCC[C@H]1C(=O)N[C@@H](CCCNC(=N)N)C(=O)N[C@H](C(=O)N[C@@H](CCC(=O)O)C(=O)N[C@H](C(=O)NCC(=O)N[C@@H](CO)C(=O)NCC(=O)N[C@@H](CO)C(=O)N[C@@H](C)C(N)=O)[C@@H](C)O)[C@@H](C)O)[C@@H](C)O [compound 65, [N-terminal(C20 diacid-gGlu), des1, 30S, 31G, 33A]mimylin] ({C20 diacid-γGlu}-ASELSTAALGRLSAELHELATLPRTETGSGSA-NH2)	≧200 μM	≧200 μM	≧200 μM	≧200 μM	≧200 μM	≧200 μM	≧200 μM	≧200 μM		
CCCCCCCCCCCCCCCC(=O)N[C@@H](CCC(=O)O)C(=O)N[C@@H](C)C(=O)N[C@@H](CO)C(=O)N[C@@H](CCC(=O)O)C(=O)N[C@@H](CC(C)C)C(=O)N[C@@H](CO)C(=O)N[C@H](C(=O)N[C@@H](C)C(=O)N[C@@H](C)C(=O)N[C@@H](CC(C)C)C(=O)NCC(=O)N[C@@H](CCCNC(=N)N)C(=O)N[C@@H](CC(C)C)C(=O)N[C@@H](CO)C(=O)N[C@@H](C)C(=O)N[C@@H](CCC(=O)O)C(=O)N[C@@H](CC(C)C)C(=O)N[C@@H](Cc1cnc[nH]1)C(=O)N[C@@H](CCC(=O)O)C(=O)N[C@@H](CC(C)C)C(=O)N[C@@H](C)C(=O)N[C@H](C(=O)N[C@@H](CC(C)C)C(=O)N1CCC[C@H]1C(=O)N[C@@H](CCCNC(=N)N)C(=O)N[C@H](C(=O)N[C@@H](CCC(=O)O)C(=O)N[C@H](C(=O)NCC(=O)N1CCC[C@H]1C(=O)N[C@@H](CCC(=O)O)C(=O)N[C@@H](CO)C(=O)N1CCC[C@H]1C(N)=O)[C@@H](C)O)[C@@H](C)O)[C@@H](C)O)[C@@H](C)O [compound 7, [N-terminal(C16)]mimylin] (Palmitoyl-EASELSTAALGRLSAELHELATLPRTETGPESP-NH2)	≧200 μM	≧200 μM	≧200 μM	≧200 μM	≧200 μM	≧200 μM	≧200 μM	≧200 μM		
CC(C)C[C@H](NC(=O)[C@H](CCC(=O)O)NC(=O)[C@H](Cc1cnc[nH]1)NC(=O)[C@H](CC(C)C)NC(=O)[C@H](CCC(=O)O)NC(=O)[C@H](C)NC(=O)[C@H](CO)NC(=O)[C@H](CC(C)C)NC(=O)[C@H](CCCNC(=N)N)NC(=O)CNC(=O)[C@H](CC(C)C)NC(=O)[C@@H](NC(=O)[C@H](C)NC(=O)[C@@H](NC(=O)[C@H](CO)NC(=O)[C@@H](NC(=O)[C@H](CCC(=O)O)NC(=O)[C@H](CO)NC(=O)[C@H](C)NC(=O)[C@H](CCC(=O)O)NC(=O)CCCCCCCCCCCCCCCCC(=O)O)C(C)C)[C@@H](C)O)C(C)C)C(=O)N[C@@H](C)C(=O)N[C@H](C(=O)N[C@@H](CC(C)C)C(=O)N1CCC[C@H]1C(=O)N[C@@H](CCCNC(=N)N)C(=O)N[C@H](C(=O)N[C@@H](CCC(=O)O)C(=O)N[C@H](C(=O)NCC(=O)N1CCC[C@H]1C(=O)N[C@@H](CCC(=O)O)C(=O)N[C@@H](CO)C(=O)N1CCC[C@H]1C(N)=O)[C@@H](C)O)[C@@H](C)O)[C@@H](C)O [compound 24, [N-terminal(C18 diacid), 5V, 9V]mimylin] ({C18 diacid}-EASEVSTAVLGRLSAELHELATLPRTETGPESP-NH2)	≧200 μM			≧200 μM	≧200 μM	≧200 μM	≧200 μM	≧200 μM	150 (≈ 562 µg/mL)	145 (≈ 543 µg/mL)
CC(C)C[C@H](NC(=O)[C@H](CCC(=O)O)NC(=O)[C@H](Cc1cnc[nH]1)NC(=O)[C@H](CC(C)C)NC(=O)[C@H](CCC(=O)O)NC(=O)[C@H](C)NC(=O)[C@H](CO)NC(=O)[C@H](CC(C)C)NC(=O)[C@H](CCCCN)NC(=O)CNC(=O)[C@H](CC(C)C)NC(=O)[C@@H](NC(=O)[C@H](C)NC(=O)[C@@H](NC(=O)[C@H](CO)NC(=O)[C@H](CC(C)C)NC(=O)[C@H](CCC(=O)O)NC(=O)[C@H](CO)NC(=O)[C@H](C)NC(=O)[C@H](CCC(=O)O)NC(=O)CCCCCCCCCCCCCCCCC(=O)O)[C@@H](C)O)C(C)C)C(=O)N[C@@H](C)C(=O)N[C@H](C(=O)N[C@@H](CC(C)C)C(=O)N1CCC[C@H]1C(=O)N[C@@H](CCCCN)C(=O)N[C@H](C(=O)N[C@@H](CCC(=O)O)C(=O)N[C@H](C(=O)NCC(=O)N1CCC[C@H]1C(=O)N[C@@H](CCC(=O)O)C(=O)N[C@@H](CO)C(=O)N1CCC[C@H]1C(N)=O)[C@@H](C)O)[C@@H](C)O)[C@@H](C)O [compound 39, [N-terminal(C18 diacid), 9V, 12K, 25K]mimylin] ({C18 diacid}-EASELSTAVLGKLSAELHELATLPKTETGPESP-NH2)	≧200 μM	≧200 μM	≧200 μM	≧200 μM	≧200 μM	≧200 μM	≧200 μM	≧200 μM		
CC(C)C[C@H](NC(=O)CC[C@H](NC(=O)CCCCCCCCCCCCCCCCCCC(=O)O)C(=O)O)C(=O)N[C@@H](CO)C(=O)NCC(=O)N[C@@H](CC(C)C)C(=O)N[C@@H](CO)C(=O)N[C@H](C(=O)N[C@@H](C)C(=O)N[C@H](C(=O)N[C@@H](CC(C)C)C(=O)NCC(=O)N[C@@H](CCCNC(=N)N)C(=O)N[C@@H](CC(C)C)C(=O)N[C@@H](CO)C(=O)N[C@@H](C)C(=O)N[C@@H](CCC(=O)O)C(=O)N[C@@H](CC(C)C)C(=O)N[C@@H](Cc1cnc[nH]1)C(=O)N[C@@H](CCC(=O)O)C(=O)N[C@@H](CC(C)C)C(=O)N[C@@H](CO)C(=O)N[C@H](C(=O)N[C@@H](Cc1ccc(O)cc1)C(=O)N1CCC[C@H]1C(=O)N[C@@H](CCCNC(=N)N)C(=O)N[C@H](C(=O)N[C@@H](CCC(=O)O)C(=O)N[C@H](C(=O)NCC(=O)N[C@@H](CO)C(=O)NCC(=O)N[C@H](C(=O)N[C@@H](Cc1ccc(O)cc1)C(N)=O)[C@@H](C)O)[C@@H](C)O)[C@@H](C)O)[C@@H](C)O)C(C)C)[C@@H](C)O [compound 123, [N-terminal(C20 diacid-gGlu), des1, 2L, 4G, 9V, 21S, 23Y, 30S, 31G, 32T, 33Y]mimylin] ({C20 diacid-γGlu}-LSGLSTAVLGRLSAELHELSTYPRTETGSGTY-NH2)	≧200 μM	≧200 μM		≧200 μM	≧200 μM	≧200 μM	≧200 μM	≧200 μM		2 (≈ 7.64 µg/mL)

Reference: patent US9593149B2, “Amylin and calcitonin receptor agonist” (Novo Nordisk A/S, priority 2014, dated 2017)
